Values quoted from earlier work, collected in patent US20100190757A1, “COMBINATION PREPARATION FOR ORAL CONTREACEPTION AND ORAL THERAPY OF DYSFUNCTIONAL UTERINE BLEEDING CONTAINING ESTRADIOL VALERATE AND DIENOGEST AND METHOD OF USING SAME” (priority 2005, published 2010).

Test system: dysfunctional uterine bleeding
Conditions: for duration of the bleeding period: 6 anovulatory women (14 days, 12th to 25th day of cycle) and ten ovulatory women (20 days, 5th to 25th day), three times daily, both groups; for reliable contraception: same regimen, anovulatory and ovulatory women

Structure (SMILES): C#C[C@]1(O)CC[C@H]2[C@@H]3CCC4=CC(=O)CC[C@@H]4[C@H]3CC[C@@]21C [norethisterone]
- duration of the bleeding period: reduced
- reliable contraception: not attained

Structure (SMILES): CC(=O)O[C@]1(C(C)=O)CC[C@H]2[C@@H]3C[C@H](C)C4=CC(=O)CC[C@]4(C)[C@H]3CC[C@@]21C [medroxyprogesterone acetate]
- duration of the bleeding period: reduced
- reliable contraception: not attained
